pIC50: −log10 of the molar value. Where a name gives a salt, the structure may show the parent alone.

The target in the first assay is ATM (Homo sapiens (Human), UniProt Q13315). Kind of assay: ATM in Cell Western Assay (pKAP1 in etoposide-treated MCF-7 cells). To be noted: MCF-7 cells, etoposide 100 μM, 1 hr, pKAP1 readout. The format is cell-based. The method in brief: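 After paraformaldehyde fixation and Triton X-100 permeabilization, immunostained plates were read by infrared scanning (ODYSSEY CLx). Compound was given as 10 doses, 3-fold dilutions from a 1 μM final top concentration.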
Sequence of ATM (Q13315 whole entry): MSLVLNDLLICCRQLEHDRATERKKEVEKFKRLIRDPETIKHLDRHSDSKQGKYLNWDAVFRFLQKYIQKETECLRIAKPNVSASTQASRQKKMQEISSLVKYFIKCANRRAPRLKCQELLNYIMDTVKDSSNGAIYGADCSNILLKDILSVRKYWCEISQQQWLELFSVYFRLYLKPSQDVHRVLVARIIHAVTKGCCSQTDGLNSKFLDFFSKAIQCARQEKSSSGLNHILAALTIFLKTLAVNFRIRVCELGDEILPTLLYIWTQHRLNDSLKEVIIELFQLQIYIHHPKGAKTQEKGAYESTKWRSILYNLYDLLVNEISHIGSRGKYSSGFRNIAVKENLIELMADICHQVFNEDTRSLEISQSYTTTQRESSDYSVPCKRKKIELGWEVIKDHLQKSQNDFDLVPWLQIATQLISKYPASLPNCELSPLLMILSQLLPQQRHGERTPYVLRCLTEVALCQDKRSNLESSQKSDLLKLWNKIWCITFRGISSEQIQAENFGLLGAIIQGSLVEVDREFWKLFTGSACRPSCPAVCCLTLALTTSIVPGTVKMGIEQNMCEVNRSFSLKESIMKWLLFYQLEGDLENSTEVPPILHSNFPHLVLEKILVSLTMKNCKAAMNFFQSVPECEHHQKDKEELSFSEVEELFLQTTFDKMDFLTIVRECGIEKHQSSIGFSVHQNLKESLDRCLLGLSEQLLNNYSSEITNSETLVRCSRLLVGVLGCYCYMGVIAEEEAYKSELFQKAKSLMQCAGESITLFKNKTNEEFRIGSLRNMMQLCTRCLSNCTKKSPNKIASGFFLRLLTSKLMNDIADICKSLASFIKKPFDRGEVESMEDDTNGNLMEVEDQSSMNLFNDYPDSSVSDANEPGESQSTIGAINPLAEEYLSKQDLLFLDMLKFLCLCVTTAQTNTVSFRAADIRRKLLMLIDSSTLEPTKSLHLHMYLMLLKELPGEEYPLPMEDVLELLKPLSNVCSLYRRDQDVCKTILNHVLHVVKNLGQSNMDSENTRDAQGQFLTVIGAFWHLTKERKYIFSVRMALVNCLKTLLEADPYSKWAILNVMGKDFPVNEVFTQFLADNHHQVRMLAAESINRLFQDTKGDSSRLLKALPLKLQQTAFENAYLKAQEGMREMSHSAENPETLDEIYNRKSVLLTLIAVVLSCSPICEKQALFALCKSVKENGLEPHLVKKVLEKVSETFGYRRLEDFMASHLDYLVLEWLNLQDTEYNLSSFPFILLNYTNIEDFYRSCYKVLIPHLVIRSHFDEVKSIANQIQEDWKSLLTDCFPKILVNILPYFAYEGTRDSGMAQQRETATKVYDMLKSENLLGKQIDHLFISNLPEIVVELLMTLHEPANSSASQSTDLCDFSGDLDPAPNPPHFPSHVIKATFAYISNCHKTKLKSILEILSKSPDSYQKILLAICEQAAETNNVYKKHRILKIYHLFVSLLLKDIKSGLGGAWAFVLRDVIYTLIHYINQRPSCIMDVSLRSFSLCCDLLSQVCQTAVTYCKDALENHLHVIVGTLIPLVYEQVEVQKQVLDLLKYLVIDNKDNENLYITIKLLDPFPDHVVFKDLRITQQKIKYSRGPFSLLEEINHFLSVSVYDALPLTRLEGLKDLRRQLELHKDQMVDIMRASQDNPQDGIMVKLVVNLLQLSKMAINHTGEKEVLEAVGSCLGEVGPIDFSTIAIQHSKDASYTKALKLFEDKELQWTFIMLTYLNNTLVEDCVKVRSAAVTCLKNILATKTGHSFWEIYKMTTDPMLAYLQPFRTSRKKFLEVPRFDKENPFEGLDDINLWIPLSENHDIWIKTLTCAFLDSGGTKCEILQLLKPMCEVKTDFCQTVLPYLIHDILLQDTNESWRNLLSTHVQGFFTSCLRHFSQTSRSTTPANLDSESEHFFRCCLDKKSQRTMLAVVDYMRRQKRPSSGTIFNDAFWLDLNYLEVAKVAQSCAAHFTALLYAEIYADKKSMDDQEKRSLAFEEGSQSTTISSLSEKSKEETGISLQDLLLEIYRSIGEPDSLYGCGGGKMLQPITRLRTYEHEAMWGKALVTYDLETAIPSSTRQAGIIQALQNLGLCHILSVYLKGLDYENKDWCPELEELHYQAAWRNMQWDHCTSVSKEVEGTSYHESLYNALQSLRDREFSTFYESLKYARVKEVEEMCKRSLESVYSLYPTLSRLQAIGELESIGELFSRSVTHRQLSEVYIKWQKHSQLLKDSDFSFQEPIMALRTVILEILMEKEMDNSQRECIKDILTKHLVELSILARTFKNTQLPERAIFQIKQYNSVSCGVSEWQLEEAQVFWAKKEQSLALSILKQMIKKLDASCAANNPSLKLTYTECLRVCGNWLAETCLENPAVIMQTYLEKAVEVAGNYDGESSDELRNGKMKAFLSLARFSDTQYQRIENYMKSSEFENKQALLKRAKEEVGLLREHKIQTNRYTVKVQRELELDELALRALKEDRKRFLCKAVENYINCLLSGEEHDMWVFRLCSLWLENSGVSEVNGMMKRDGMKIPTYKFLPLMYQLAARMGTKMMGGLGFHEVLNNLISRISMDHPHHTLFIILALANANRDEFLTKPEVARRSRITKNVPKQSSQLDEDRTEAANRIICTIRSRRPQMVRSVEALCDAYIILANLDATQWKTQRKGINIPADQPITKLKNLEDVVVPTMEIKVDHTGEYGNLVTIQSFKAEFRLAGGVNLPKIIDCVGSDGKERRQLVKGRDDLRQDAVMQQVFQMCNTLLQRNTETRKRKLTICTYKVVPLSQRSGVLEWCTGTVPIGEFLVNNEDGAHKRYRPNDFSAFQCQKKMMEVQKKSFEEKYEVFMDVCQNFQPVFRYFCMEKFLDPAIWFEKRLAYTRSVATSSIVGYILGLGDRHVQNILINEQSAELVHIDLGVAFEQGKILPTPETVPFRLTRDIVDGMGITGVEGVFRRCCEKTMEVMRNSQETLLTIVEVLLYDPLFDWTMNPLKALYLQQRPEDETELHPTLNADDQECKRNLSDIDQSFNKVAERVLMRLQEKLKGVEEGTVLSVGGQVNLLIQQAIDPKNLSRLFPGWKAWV
`CN1C(=O)C2(CCC2)c2c1cnc1ccc(-c3cnc(OCC(CO)N(C)C)c(NS(C)(=O)=O)c3)cc21` (stereo not shown) [Example 296, N-(2-(2-(dimethylamino)-3-hydroxypropoxy)-5-(3′-methyl-2′-oxo-2′,3′-dihydrospiro[cyclobutane-1,1′-pyrrolo[2,3-c]quinolin]-8′-yl)pyridin-3-yl)methanesulfonamide] showed a pIC50 of less than 7.00. In turn, `CN1C(=O)C2(CCC2)c2c1cnc1ccc(-c3cnc(OCCCN4CCNCC4)c(NS(C)(=O)=O)c3)cc21` [Example 300, N-(5-(3′-Methyl-2′-oxo-2′,3′-dihydrospiro[cyclobutane-1,1′-pyrrole[2,3-c]quinolin]-8′-yl)-2-(3-(piperazin-1-yl)propoxy)pyridin-3-yl) methanesulfonamide] had a pIC50 of 7.00 to 9.00.

Molecule `CN1C(=O)C2(CCC2)c2c1cnc1ccc(-c3cnc(OCC(F)(F)CN4CCCCC4)c(NS(C)(=O)=O)c3)cc21` [Example 256, N-(2-(2,2-Difluoro-3-(piperidin-1-yl)propoxy)-5-(3′-methyl-2′-oxo-2′,3′-dihydrospiro[cyclobutane-1,1′-pyrrolo[2,3-c]quinolin]-8′-yl)pyridin-3-yl)methanesulfonamide] had a pIC50 of less than 7.00. `CN(C)CCCOc1ncc(-c2ccc3ncc4c(c3c2)C2(CCC2)C(=O)N4C)cc1S(N)(=O)=O` [Example 255, 2-(3-(Dimethylamino)propoxy)-5-(3′-methyl-2′-oxo-2′,3′-dihydrospiro[cyclobutane-1,1′-pyrrolo[2,3-c]quinolin]-8′-yl)pyridine-3-sulfonamide]: the pIC50 was 7.00 to 9.00.

Molecule `CN1C(=O)C2(CC2)c2c1cnc1ccc(-c3ccc4c(ccc(=O)n4C)c3)cc21` [Example 45, 3′-Methyl-8′-(1-methyl-2-oxo-1,2-dihydroquinolin-6-yl)spiro[cyclopropane-1,1′-pyrrolo[2,3-c]quinolin]-2′(3′-H)-one] gave a pIC50 of less than 7.00. The same measure, in the same setting: to `CN(C)CCCOc1ncc(-c2ccc3ncc4c(c3c2)C2(CCC2)C(=O)N4C)cc1NS(=O)(=O)N(C)Cc1ccccc1` [Example 182, N-Benzyl-N-methyl({2-[3-(dimethylamino)propoxy]-5-{3′-methyl-2′-oxo-2′,3′-dihydrospiro[cyclobulane-1,1′-pyrrolo[2,3-c]quinoline]-8′-yl}pyridin-3-yl}amino)sulfonamide] belongs 7.00 to 9.00; to `Cc1ccc(S(=O)(=O)Nc2cc(-c3ccc4ncc5c(c4c3)C3(CCC3)C(=O)N5C)cnc2OCCCN2CCC(F)(F)CC2)cc1` [Example 152, hydrochloride], 7.00 to 9.00; to `CN(C)CCCOc1ncc(-c2ccc3ncc4c(c3c2)C2(CC2)C(=O)N4C)cc1Cl` [Example 55, 8′-(5-Chloro-6-(3-(dimethylamino)propoxy)pyridin-3-yl)-3 methylspiro[cyclopropane-1,1′-pyrrolo[2,3-c]quinolin]-2′(3′-H)-one], less than 7.00. The same measure, in the same setting: to `CN(C)CCCOc1ncc(-c2ccc3ncc4c(c3c2)C2(CC2)C(=O)N4C)cc1C(N)=O` [Example 52, 2-(3-(Dimethylamino)propoxy)-5-(3′-methyl-2′-oxo-2′,3′-dihydrospiro[cyclopropane-1,1′-pyrrolo[2,3-c]quinolin]-8′-yl)nicotinamide] belongs less than 7.00; to `CN1C(=O)C2(CCC2)c2c1cnc1ccc(-c3cnc(N4CCS(=N)(=O)CC4)c(NS(=O)(=O)c4ccccc4)c3)cc21` (racemic) [Example 138, rac-N-(2-(1-Imino-1-oxido-1λ^6-thiomorpholino)-5-(3′-methyl-2′-oxo-2′,3′-dihydrospiro[cyclobutane-1,1′-pyrrolo[2,3-c]quinolin]-8′-yl)pyridin-3-yl)benzenesulfonamide hydrochloride], less than 7.00; to `CN1C(=O)C2(CC2)c2c1cnc1ccc(-c3cnc(OCCC[N+](C)(C)[O-])c(NS(=O)(=O)c4ccccc4)c3)cc21` [Example 140, N,N-Dimethyl-3-((5-(3′-methyl-2′-oxo-2′,3′-dihydrospiro[cyclopropane-1,1′-pyrrolo[2,3-c]quinolin]-8′-yl)-3-(phenylsulfonamido)pyridin-2-yl)oxy)propan-1-amine oxide], 7.00 to 9.00. As to `CC(CCOc1ncc(-c2ccc3ncc4c(c3c2)C2(CCC2)C(=O)N4C)cc1NS(C)(=O)=O)N(C)C` (stereo not shown) [Example 292, N-(2-(3-(Dimethylamino)butoxy)-5-(3′-methyl-2′-oxo-2′,3′-dihydrospiro [cyclobutane-1,1′-pyrrolo[2,3-c]quinolin]-8′-yl)pyridin-3-yl)methanesulfonamide], the pIC50 is 7.00 to 9.00. On the same count and under the same terms, to `COc1ncc(-c2ccc3ncc4c(c3c2)C2(CC2)C(=O)N4CCC#N)cc1NS(=O)(=O)c1ccccc1` [Example 27, N-(5-(3′-(2-Cyanoethyl)-2′-oxo-2′,3′-dihydrospiro[cyclopropane-1,1′-pyrrolo[2,3-c]quinolin]-8′-yl)-2-methoxypyridin-3-yl)benzenesulfonamide] belongs less than 7.00.

Staying with this assay, now noted: pKAP1 in etoposide-treated MCF-7 cells.
`CC(C)NCCOc1ncc(-c2cc3c4c(cnc3cc2F)N(C)C(=O)C42CN(CCO)C2)cc1NS(C)(=O)=O` [Example 506, N-(5-(7′-Fluoro-1-(2-hydroxyethyl)-3′-methyl-2′-oxo-2′,3′-dihydrospiro[azetidine-3,1′-pyrrolo[2,3-c]quinolin]-8′-yl)-2-(2-(isopropylamino)ethoxy)pyridin-3-yl)methanesulfonamide] had a pIC50 of 7.00 to 9.00. Molecule `CC(C)NCCOc1ncc(-c2ccc3ncc4c(c3n2)C2(CCC2)C(=O)N4C)cc1NS(C)(=O)=O` [Example 561, N-(5-[7-Methyl-8-oxo-7,8-dihydrospiro[cyclobutane-1,9-pyrrolo[2,3-c]1,5-naphthyridin]-2-yl]-2-[2-[(propan-2-yl)amino]ethoxy]pyridin-3-yl) methanesulfonamide] showed a negative logarithm of the IC50 (pIC50) of 7.00 to 9.00. On the same count and under the same terms, to `CN[C@H]1C[C@@]2(C1)C(=O)N(C)c1cnc3cc(F)c(-c4cnc(OCCNC(C)C)c(NS(C)(=O)=O)c4)cc3c12` [Example 473, trans-N-(5-(7′-Fluoro-3′-methyl-3-(methylamino)-2′-oxo-2′,3′-dihydrospiro[cyclobutane-1,1′-pyrrolo[2,3-c]quinolin]-8′-yl)-2-(2-(isopropylamino)ethoxy)pyridin-3-yl)methanesulfonamide] belongs 7.00 to 9.00. The same measure, in the same setting: to `CC(C)NCCOc1ncc(-c2cc3c4c(cnc3cc2F)N(C)C(=O)C42CN([C@H](C)c3ccccc3)C2)cc1NS(C)(=O)=O` [Example 494] belongs less than 7.00; to `CC(C)NCCOc1ncc(-c2cc3c4c(cnc3cc2F)N(C)C(=O)C42CN(C(N)=O)C2)cc1NS(C)(=O)=O` [Example 517, 7′-Fluoro-8′-(6-(2-(isopropylamino)ethoxy)-5-(methylsulfonamido)pyridin-3-yl)-3′-methyl-2′-oxo-2′,3′-dihydrospiro[azetidine-3,1′-pyrrolo[2,3-c]quinoline]-1-carboxamide], less than 7.00.

As to `CC(C)NCCOc1ncc(-c2cc3c(cc2F)ncc2c3[C@]3(C[C@H](c4ccc(=O)[nH]c4)C3)C(=O)N2C)cc1NS(C)(=O)=O` [Example 442, cis-N-(5-(7′-Fluoro-3′-methyl-2′-oxo-3-(6-oxo-1,6-dihydropyridin-3-yl)-2′,3′-dihydrospiro[cyclobutane-1,1′-pyrrolo[2,3-c]quinolin]-8′-yl)-2-(2-(isopropylamino)ethoxy)pyridin-3-yl)methanesulfonamide], the pIC50 was less than 7.00. Still for that read-out and setting: to `CC(C)NCCOc1ncc(-c2cc3c(cc2F)ncc2c3[C@]3(C[C@@H](N4CCOCC4)C3)C(=O)N2C)cc1NS(C)(=O)=O` [Example 472, trans-N-(5-(7′-Fluoro-3′-methyl-3-morpholino-2′-oxo-2′,3′-dihydrospiro[cyclobutane-1,1′-pyrrolo[2,3-c]quinolin]-8′-yl)-2-(2-(isopropylamino)ethoxy)pyridin-3-yl)methanesulfonamide] belongs less than 7.00; to `CC(C)NCCOc1ncc(-c2cc3c(cc2F)ncc2c3[C@]3(C[C@@H](N(C)C)C3)C(=O)N2C)cc1NS(C)(=O)=O` [Example 466, trans-N-(5-{3-(Dimethylamino)-7′-fluoro-3′-methyl-2′-oxo-2′,3′-dihydrospiro[cyclobutane-1,1′-pyrrolo[2,3-c]quinolin]-8′-yl)-2-(2-(isopropylamino)ethoxy)pyridin-3-yl)methanesulfonamide], 7.00 to 9.00. On the same count and under the same terms, to `CN1C(=O)C2(CCC2)c2c1cnc1ccc(-c3cnc(N4CC5(CNC5)C4)c(NS(C)(=O)=O)c3)cc21` [Example 346, N-(5-(3′-Methyl-2′-oxo-2′,3′-dihydrospiro[cyclobutane-1,1 pyrrole[2,3-c]quinolin]-8′-yl)-2-(2,6-diazaspiro[3.3]heptan-2-yl)pyridin-3-yl) methanesulfonamide formate] belongs less than 7.00. The same measure, in the same setting: to `CC(C)NCCOc1ncc(-c2cc3c(cc2F)ncc2c3[C@]3(C[C@H](N4CCCC4)C3)C(=O)N2C)cc1NS(C)(=O)=O` [Example 467, cis-N-(5-(7′-Fluoro-3′-methyl-2′-oxo-3-(pyrrolidin-1-yl)-2′,3′-dihydrospiro[cyclobutane-1,1′-pyrrolo[2,3-c]quinolin]-8′-yl)-2-(2-(isopropylamino)ethoxy)pyridin-3-yl)methanesulfonamide] belongs 7.00 to 9.00; to `CC(C)NCCOc1ncc(-c2cc3c4c(cnc3cc2F)N(C)C(=O)C42CN(C3CCNCC3)C2)cc1NS(C)(=O)=O` [Example 501, N-(5-(7′-Fluoro-3′-methyl-2′-oxo-1-(piperidin-4-yl)-2′,3′-dihydrospiro[azetidine-3,1′-pyrrolo[2,3-c]quinolin]-8′-yl)-2-(2-(isopropylamino)ethoxy)pyridin-3-yl)methanesulfonamide], less than 7.00; to `CN1C(=O)C2(CCC2)c2c1cnc1ccc(-c3cnc(N4CC5CN(C(=O)OC(C)(C)C)CC5C4)c(NS(C)(=O)=O)c3)cc21` (stereo not shown) [Example 348, tert-Butyl 5-(5-(3′-methyl-2′-oxo-2′,3′-dihydrospiro [cyclobutane-1,1′-pyrrolo[2,3-c]quinolin]-8′-yl)-3-(methylsulfonamido)pyridin-2-yl) hexahydropyrrolo [3,4-c] pyrrole-2(1H)-carboxylate], less than 7.00.

One may read the pIC50 as the negative decadic logarithm of the IC50, by convention in mol/L. Read a low pIC50 as a high IC50.

The values are drawn from US12187742B2 (XRAD Therapeutics, Inc., priority 2018, dated 2025).
